Results reported in patent publication US5928933A, “Process for the enzymatic resolution of N-(alkoxycarbonyl)-4-ketoproline alkyl esters or N-(alkoxycarbonyl)-4-hydroxyproline alkyl esters using Candida antarctica lipase B” (priority 1998, dated 1999).
Where two headings read alike, the source gives them in different places.

Assays:
[1] = biological target: T1, Candida antartica lipase fraction B (CALB) (Moesziomyces antarcticus, UniProt P41365); assay type: biochemical
T1 construct: purchased Boehringer Mannheim CHIRAZYME L-2
T1 sequence (P41365 26-342): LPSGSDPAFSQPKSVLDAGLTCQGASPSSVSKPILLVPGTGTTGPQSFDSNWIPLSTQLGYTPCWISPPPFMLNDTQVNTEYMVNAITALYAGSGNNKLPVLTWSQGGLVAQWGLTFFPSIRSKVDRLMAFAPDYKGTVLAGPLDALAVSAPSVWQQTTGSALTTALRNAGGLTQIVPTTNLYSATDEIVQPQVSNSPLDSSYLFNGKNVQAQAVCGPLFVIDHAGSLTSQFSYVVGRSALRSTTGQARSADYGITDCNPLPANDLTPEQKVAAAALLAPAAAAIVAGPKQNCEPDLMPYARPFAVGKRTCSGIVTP
Method: Using CALB for the diastereomeric resolution of five of the six possible pairs of diastereomers of N-(methoxycarbonyl)-4-hydroxyproline methyl esters produced the diastereomeric excesses at the indicated conversions listed in Table 1 below.
(§1) A 3.0 mL aqueous solution containing 50 mM N-(methoxycarbonyl)-trans-4-hydroxy-L-proline methyl ester and 50 mM N-(methoxycarbonyl)-cis-4-hydroxy-D-proline methyl ester in 0.100M potassium phosphate (pH 7.0) was mixed with 2.1 mg/mL of Candida antartica lipase fraction B at 25° C. The reaction was analyzed by removal of a 0.200 mL sample and mixing with an equivalent volume of 0.100M propionic acid (HPLC internal standard) in water. The resulting solution was filtered through a 10K molecular weight cut-off filter to remove the enzyme and the filtrate analyzed by high pressure liquid chromatography on a HPX-87H column (Bio-Rad, 30 cm×7.8 mm) to determine the percent conversion of each isomer of the diastereomeric mixture, and the diastereomeric excess of the N-(methoxycarbonyl)-cis-4-hydroxy-D-proline methyl ester.
A 2.0 mL aqueous solution containing 50 mM N-(methoxycarbonyl)-trans-4-hydroxy-L-proline methyl ester and 50 mM N-(methoxycarbonyl)-cis-4-hydroxy-D-proline methyl ester in 0.100M potassium phosphate (pH 7.0) was mixed with 403 mg of immobilized Candida antartica lipase fraction B (Boehringer Mannheim, CHIRAZYME® L-2, c.-f., C2, lyo.) at 31° C. The reaction was analyzed by mixing the entire reaction mixture with an equivalent volume of 0.100M propionic acid (HPLC internal standard) in water […]. An aliquot of the resulting solution was filtered through a 10K molecular weight cut-off filter to remove the enzyme and the filtrate analyzed by high pressure liquid chromatography on a HPX-87H column (Bio-Rad, 30 cm×7.8 mm) to determine the percent conversion of each isomer of the distereomeric mixture, and the diastereomeric excess of the N-(methoxycarbonyl)-cis-4-hydroxy-D-proline methyl ester. After 7 h, a 94% diastereomeric excess of N-(methoxycarbonyl)-cis-4-hydroxy-D-proline methyl ester was obtained at 49% conversion of the diastereomeric mixture (3.2% N-(methoxycarbonyl)-trans-4-hydroxy-L-proline methyl ester remained).
as §1, with “A 5.0” for “A 3.0”, “containing 51” for “containing 50”, “and 51” for “and 50”, “with 50” for “with 2.1”, “the N-(methoxycarbonyl)-trans-4-hydroxy-D-prolinemethyl” for “the N-(methoxycarbonyl)-cis-4-hydroxy-D-proline methyl”
A 5.0 mL aqueous solution containing 50 mM N-(methoxycarbonyl)-cis-4-hydroxy-D-proline methyl ester and 50 mM N-(methoxycarbonyl)-cis-4-hydroxy-L-proline methyl ester in 0.100M potassium phosphate (pH 7.0) and 50 mg/mL of Candida antartica lipase fraction B was mixed at 25° C. The reaction was analyzed by removal of two 0.200 mL aliquots at pre-determined times. One 0.200 mL aliquot was mixed with an equivalent volume of 0.100M propionic acid (HPLC internal standard) in water, and the resulting solution filtered through a 10K molecular weight cut-off filter to remove the enzyme. The filtrate was then analyzed by high pressure liquid chromatography on a HPX-87H column (Bio-Rad, 30 cm×7.8 mm) to determine the total percent conversion of both the D- and L-proline isomers of the N-(methoxycarbonyl)-cis-4-hydroxyproline methyl esters. […]

[2] = biological target: T1, Candida antartica lipase fraction B (CALB); assay type: biochemical; conditions: 0.20m succinate, 5 h, pH 6
Method: (§2) Reacting a 0.10M solution of the 1:1 mixture of KDP(MEMC) and KLP(MEMC) in 0.20M succinate (pH 6.0) at 25° C. for 5 h with approximately 1-3 mg/mL of Candida antartica lipase fraction B (CALB) produced a 95% ee (substrate) of KDP(MEMC) at 51% conversion. […] The calculated enantioselectivity (E) at 51% conversion was E=81.
(§3) The enzymatic hydrolysis reaction of KDP(MEMC) and KLP(MEMC) using CALB (described above) was repeated at pH 5.0 in 0.20M acetate buffer (Example 2), and a 100% ee (substrate) of the D-isomer was obtained at 51% conversion (E=>1000); the reaction rate was approximately 50% of the rate at pH 6.0, and the slight loss of the D-isomer at pH 5.0 was again observed in the absence of added enzyme (95% recovery at pH 5.0 after 24 h with no enzyme).
The procedure described in Example I was repeated using Candida antartica lipase fraction B (CALB), except that the reaction was run in 0.200M sodium cetate (pH 5.0) instead of the 0.20M sodium succinate buffer (pH 6.0) used for Candida antartica lipase fraction B in Example 1. Aqueous solutions (5.0 mL) containing varying concentrations of a racemic mixture of N-(methoxycarbonyl)-4-keto-D,L-proline methyl ester and CALB were mixed at 15° C., 25° C., 35° C. or 45° C.
An aqueous solution (5.0 mL) containing 25 mM N-(methoxycarbonyl)-4-keto-Dproline methyl ester and 25 mM N-(methoxycarbonyl)-4-keto-L-proline methyl ester in 0.200M sodium acetate (pH 5.0) was mixed with 2.5 g of immobilized Candida antartica lipase fraction B (Boehringer Mannheim, CHIRAZYME® L-2, c.-f., C2, lyo.) at 25° C. […] The dichloromethane extract was then analyzed by chiral gas chromatography on a Chiraldex G-TA column (Advanced Separation Technologies, Inc., 50 m×0.32 mm ID) to determine the amounts of the unreacted D- and L-isomers. After 31 h, an 85% enantiomeric excess of N-(methoxycarbonyl)-4-keto-D-proline methyl ester was obtained at 41% conversion of the racemic mixture.
A 200 mL aqueous solution containing 0.200M sodium acetate (pH 5.0), 1.3325 g of Candida antartica lipase fraction B, and 4.02 g of racemic N-(methoxycarbonyl)-4-keto-D,L-proline methyl ester (100 mM) was stirred at 25° C. After 24 h, an 96% enantiomeric excess of N-(methoxycarbonyl)-4-keto-D-proline methyl ester was obtained at 50% conversion of the racemic mixture. The reaction mixture was filtered using a 10,000 MWCO membrane filter (Amicon) to remove the enzyme catalyst, and the filtrate extracted with three 200 mL portions of dichloromethane. The combined organic extracts were dried over magnesium sulfate, filtered, and the dichloromethane removed from the filtrate by rotary evaporation at reduced pressure. Residual dichloromethane was removed from the resulting colorless oil at high vacuum (50 millitorr) to produce N-(methoxycarbonyl)-4-keto-D-proline methyl ester as a white solid (1.99 g, 99% isolated yield, 99% purity (by GC), 97% ee).
An aqueous solution (2.0 mL) containing 50 mM N-(ethoxycarbonyl)-4-keto-D-proline ethyl ester and 50 mM N-(ethoxycarbonyl)-4-keto-L-proline ethyl ester in 0.200M sodium acetate (pH 5.0) and 30 mg/mL of Candida antartica lipase fraction B was mixed at 25° C. […] The dichloromethane extract was then analyzed by chiral gas chromatography on a Chiraldex G-TA column (Advanced Separation Technologies, Inc., 50 m×0.32 mm ID) to determine the amounts of the unreacted D- and L-isomers. After 24 h, a 100% enantiomeric excess of N-(ethoxycarbonyl)-4-keto-D-proline ethyl ester was obtained at 51% conversion of the racemic mixture.
An aqueous solution (1.0 mL) containing 19 mM of N-(2-phenylacetyl)-4-keto-D-proline methyl ester and 19 mM of N-(2-phenylacetyl)-4-keto-L-proline methyl ester in 0.200M sodium acetate (pH 5.0) and 25 mg/mL of Candida antartica lipase fraction B was mixed at 25° C. […]

[3] = Stability of aqueous solutions of the esters in the absence of enzyme; assay type: physicochemical; conditions: for isomer lost without added enzyme: pH 6.0, identical reaction conditions (0.20M succinate, 25° C.), 5 h
Method: as §2, §3
The pH of the reaction mixture is also chosen to optimize the reaction rate, the stability of the enzyme catalyst activity, and the stability of the ketoproline or hydroxyproline derivatives. The stability of aqueous solutions of N-(alkoxy-carbonyl)-4-ketoproline alkyl esters or N-(alkoxycarbonyl)-4-hydroxyproline alkyl esters were dependent on pH. […] For resolution of mixtures of N-(alkoxycarbonyl)-4-keto-D,L-proline alkyl esters, a pH range of from 3.0 to 6.0 is preferred, and a pH range of from 4.0 to 5.0 is most preferred. For resolution of diastereomeric mixtures of N-(alkoxycarbonyl)-4-hydroxy-proline alkyl esters, a pH range of from 3.0 to 7.5 is preferred, and a pH range of from 6.0 to 7.0 is most preferred.

[4] = biological target: T1, Candida antartica lipase fraction B (CALB); test: Relative rates of hydrolysis of N-(alkoxycarbonyl)-trans-4-hydroxy-L-proline methyl esters by CALB; assay type: biochemical; conditions: 50 mM substrate, 3.0 mg/mL CALB, 25° C.
Method: A 2.0 mL aqueous solution containing 50 mM N-(methoxycarbonyl)-trans-4-hydroxy-L-proline methyl ester, or 50 mM N-(ethoxycarbonyl)-trans-4-hydroxy-L-proline methyl ester, or 50 mM N-(tert-butoxycarbonyl)-trans-4-hydroxy-L-proline methyl ester in 0.100M potassium phosphate (pH 7.0) and 3.0 mg/mL of Candida antartica lipase fraction B was mixed at 25° C. The reactions were analyzed by removal of 0.200 mL aliquots at pre-determined times and mixing the sample with an equivalent volume of 0.100M propionic acid (HPLC internal standard) in water, and filtering the resulting solution through a 10K molecular weight cut-off filter to remove the enzyme. The filtrate was then analyzed by high pressure liquid chromatography on a HPX-87H column (Bio-Rad, 30 cm×7.8 mm) to determine the percent conversion of the N-(alkoxycarbonyl)-trans-4-hydroxy-L-proline methyl ester. Complete hydrolysis of the methyl ester of the N-methoxy-, N-ethoxy-, and N-tert-butoxycarbonyl derivatives occurred in 5 h, 2 h, and 6 h, respectively, and the initial reaction rates were 5.7, 18.7, and 3.3 micromoles/h/mg enzyme catalyst, respectively.

[5] = candida antartica lipase b, 24 h, 51000 µM, pH 7

Compound: COC(=O)[C@H]1C[C@@H](O)CN1C(=O)OC [CHDP(MEMC), N-(methoxycarbonyl)-cis-4-hydroxy-D-proline methyl ester]
- methyl ester hydrolysis by CALB ([1]; under reaction conditions): no hydrolysis

Compound: COC(=O)[C@@H]1C[C@H](O)CN1C(=O)OC [CHLP(MEMC), N-(methoxycarbonyl)-cis-4-hydroxy-L-proline methyl ester]
- isomer remaining ([1]; 50 mM each, 50 mg/mL CALB, pH 7.0, 25° C., 47 h): no N-(methoxycarbonyl)-cis-4-hydroxy-L-proline methyl ester remained
- isomer remaining [1, 5]: 3.0%

Compound: COC(=O)[C@H]1CC(=O)CN1C(=O)OC [KDP(MEMC), N-(methoxycarbonyl)-4-keto-D-proline methyl ester]
- share of isomer remaining at 51% conversion [2]: 97.5%
- recovery with no enzyme ([3]; pH 5.0, after 24 h): 95%
- isomer lost without added enzyme [3]: approximately 3%

Compound: COC(=O)[C@@H]1CC(=O)CN1C(=O)OC [KLP(MEMC), N-(methoxycarbonyl)-4-keto-L-proline methyl ester]
- share of isomer remaining at 51% conversion [2]: 2.5%
- isomer lost without added enzyme [3]: approximately 3%

Compound: COC(=O)[C@H]1C[C@H](O)CN1C(=O)OC [THDP(MEMC), N-(methoxycarbonyl)-trans-4-hydroxy-D-proline methyl ester]
- isomer remaining [1, 5]: 82.7%

Compound: COC(=O)[C@@H]1C[C@@H](O)CN1C(=O)OC [THLP(MEMC), N-(methoxycarbonyl)-trans-4-hydroxy-L-proline methyl ester]
- isomer remaining ([1]; 50 mM each, 2.1 mg/mL CALB, pH 7.0, 25° C., 24 h): no N-(methoxycarbonyl)-trans-4-hydroxy-L-proline methyl ester remained
- isomer remaining ([1]; 50 mM each, 4.0 mg/mL CALB, pH 7.0, 25° C., 24 h): no N-(methoxycarbonyl)-trans-4-hydroxy-L-proline methyl ester remained
- isomer remaining ([1]; candida antartica lipase b, 7 h, 50000 µM, pH 7): 3.2%
- time to complete hydrolysis of the methyl ester ([4]; 0.100M potassium phosphate pH 7.0): 5 h
- initial reaction rate ([4]; pH 7.0): 5.7 micromoles/h/mg enzyme catalyst
